What was measured:
C2C12 = assay: Cytotoxicity against C2C12 cells assessed as cell viability upto 30 ug/ml after 24 hrs by MTT method; type: cell-based; settings: c2c12, 24 h
[1] = Cytotoxicity against C2C12 cells assessed as cell viability at 200 ug/ml by MTT method; type: cell-based, Homo sapiens; settings: read-out: Activity
[2] = Cytotoxicity against HEPG2 cells assessed as cell viability at 200 ug/ml after 24 hrs by MTT method; type: cell-based; settings: human, read-out: Activity
[3] = Cytotoxicity against HEPG2 cells assessed as cell viability at 200 ug/ml by MTT method; type: cell-based; settings: human, read-out: Activity
[4] = Cytotoxicity against C2C12 cells assessed as cell viability at 200 ug/ml after 24 hrs by MTT method; type: cell-based; settings: read-out: Activity

Compound: CCCCCC(=O)OCCN(CCOC(=O)CCN(CCC(=O)OC)CCN1CCC(=O)OCCCN2CCOC(=O)CCN(CCC(=O)OCCN(CCOC(=O)CCCCC)C(COC(=O)CCCCC)(COC(=O)CCCCC)COC(=O)CCN3CCC(=O)OCC2(CO)COC(=O)CCN(CCN(CCC(=O)OC)CCC(=O)OCC(COC(=O)CCCCC)(COC(=O)CCCCC)N(CCOC(=O)CCCCC)CCOC(=O)CCCCC)CCC(=O)OCCN(C(CO)(COC(=O)CCCCC)COC(=O)CCCCC)CCOC(=O)CCN(CCC(=O)OCC(COC(=O)CCCCC)(COC(=O)CCCCC)N(CCOC(=O)CCCCC)CCOC(=O)CCCCC)CC3)CCN(CCC(=O)OC)CC(=O)OCCN(CCOC(=O)CCCCC)C(CO)(COC(=O)CCCCC)COC(=O)CC1)C(CO)(COC(=O)CCCCC)COC(=O)CCCCC (stereo not given)
- Activity (C2C12): Non-toxic
- viability at 200 ug/ml [1]: 73%
- viability at 24 h, 200 ug/ml [2]: 87%
- viability at 200 ug/ml [3]: 82%
- viability at 24 h, 200 ug/ml [4]: 85%

Reference: ChEMBL document CHEMBL1139070, “Synthesis and characterization of poly (amino ester) for slow biodegradable gene delivery vector” (Bioorg Med Chem, 2007)
